Laboratory results: the supplement of paper PMC10307832

Experiments:
Experiment in all cases: relative viability (nuclei count vs DMSO), 5 days (fraction); higher = more cells survive
[1] = compound: Cc1cc(Nc2cc(N3CCN(C)CC3)nc(Sc3ccc(NC(=O)C4CC4)cc3)n2)n[nH]1 [Tozasertib] + CC(C)C[C@H](NC(=O)[C@H](Cc1ccccc1)NC(=O)c1cnccn1)B(O)O [Bortezomib] (partner 0.002 µM)
Method in brief: (§1)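 Lung cancer cell lines in 1536-well plates were dosed by pin tool the day after seeding, either with one drug alone or with a fixed anchor-drug dose plus five library-drug doses (not always all listed) in √10 steps. After 5 days, cells were fixed and their nuclei stained in one step (final 0.05% Triton X-100, 1% formaldehyde, 1 ug/ml Hoechst), then counted on 4× images. Relative viability is the nuclei count in treated wells divided by that in vehicle wells. Values are medians of duplicate plates.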

[2] = compound: Cc1cc(Nc2cc(N3CCN(C)CC3)nc(Sc3ccc(NC(=O)C4CC4)cc3)n2)n[nH]1 [Tozasertib] + Cc1nc(NC(=O)N2CCC[C@H]2C(N)=O)sc1-c1ccnc(C(C)(C)C(F)(F)F)c1 [Alpelisib] (partner 2 µM)
Method in brief: as §1

[3] = compound: Cc1cc(Nc2cc(N3CCN(C)CC3)nc(Sc3ccc(NC(=O)C4CC4)cc3)n2)n[nH]1 [Tozasertib] + C[C@@H](Oc1cc(-c2cnn(C3CCNCC3)c2)cnc1N)c1c(Cl)ccc(F)c1Cl [Crizotinib] (partner 1 µM)
Method in brief: as §1

[4] = compound: Cc1cc(Nc2cc(N3CCN(C)CC3)nc(Sc3ccc(NC(=O)C4CC4)cc3)n2)n[nH]1 [Tozasertib] + COc1cc2c(Oc3ccc(NC(=O)C4(C(=O)Nc5ccc(F)cc5)CC4)cc3F)ccnc2cc1OCCCN1CCOCC1 [Foretinib] (partner 0.25 µM)
Method in brief: as §1

[5] = compound: Cc1cc(Nc2cc(N3CCN(C)CC3)nc(Sc3ccc(NC(=O)C4CC4)cc3)n2)n[nH]1 [Tozasertib] + CS(=O)(=O)CCNCc1ccc(-c2ccc3ncnc(Nc4ccc(OCc5cccc(F)c5)c(Cl)c4)c3c2)o1 [Lapatinib] (partner 2 µM)
Method in brief: as §1

[6] = compound: Cc1cc(Nc2cc(N3CCN(C)CC3)nc(Sc3ccc(NC(=O)C4CC4)cc3)n2)n[nH]1 [Tozasertib] + O=C(c1cc(Cc2n[nH]c(=O)c3ccccc23)ccc1F)N1CCN(C(=O)C2CC2)CC1 [Olaparib] (partner 8 µM)
Method in brief: as §1

[7] = compound: Cc1cc(Nc2cc(N3CCN(C)CC3)nc(Sc3ccc(NC(=O)C4CC4)cc3)n2)n[nH]1 [Tozasertib] + O=C(CCCCCCC(=O)Nc1ccccc1)NO [Vorinostat] (partner 1 µM)
Method in brief: as §1

[8] = compound: Cc1cc(Nc2cc(N3CCN(C)CC3)nc(Sc3ccc(NC(=O)C4CC4)cc3)n2)n[nH]1 [Tozasertib] + CC1(C)CCC(c2ccc(Cl)cc2)=C(CN2CCN(c3ccc(C(=O)NS(=O)(=O)c4ccc(N[C@H](CCN5CCOCC5)CSc5ccccc5)c(S(=O)(=O)C(F)(F)F)c4)cc3)CC2)C1 [Navitoclax] (partner 0.5 µM)
Method in brief: as §1

[9] = compound: Cc1cc(Nc2cc(N3CCN(C)CC3)nc(Sc3ccc(NC(=O)C4CC4)cc3)n2)n[nH]1 [Tozasertib] + C[C@]1(O)C[C@@H](c2nc(-c3ccc4ccc(-c5ccccc5)nc4c3)c3c(N)nccn32)C1 [Linsitinib] (partner 1 µM)
Method in brief: as §1

[10] = compound: Cc1cc(Nc2cc(N3CCN(C)CC3)nc(Sc3ccc(NC(=O)C4CC4)cc3)n2)n[nH]1 [Tozasertib] + CS(=O)(=O)N1CCN(Cc2cc3nc(-c4cccc5[nH]ncc45)nc(N4CCOCC4)c3s2)CC1 [Pictilisib] (partner 1 µM)
Method in brief: as §1

[11] = compound: Cc1cc(Nc2cc(N3CCN(C)CC3)nc(Sc3ccc(NC(=O)C4CC4)cc3)n2)n[nH]1 [Tozasertib]
Method in brief: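 MetaXpress counted nuclei in 4× images of lung cancer cell lines that had been fixed, permeabilised and Hoechst-stained in one step. Before that, cells in 1536-well plates were kept overnight at 37 °C, pinned with five √10-spaced library-drug doses on vehicle-anchored plates, and cultured 5 days without medium change. Viability takes treated-well nuclei over vehicle-well nuclei and uses the median across plates. Plates were accepted only at control CV below 25% and at least one doubling.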

[12] = compound: Cc1cc(Nc2cc(N3CCN(C)CC3)nc(Sc3ccc(NC(=O)C4CC4)cc3)n2)n[nH]1 [Tozasertib] + CC(=O)c1c(C)c2cnc(Nc3ccc(N4CCNCC4)cn3)nc2n(C2CCCC2)c1=O [Palbociclib] (partner 0.5 µM)
Method in brief: as §1

[13] = compound: Cc1cc(Nc2cc(N3CCN(C)CC3)nc(Sc3ccc(NC(=O)C4CC4)cc3)n2)n[nH]1 [Tozasertib] + CCNC(=O)c1noc(-c2cc(C(C)C)c(O)cc2O)c1-c1ccc(CN2CCOCC2)cc1 [Luminespib] (partner 0.01 µM)
Method in brief: as §1

[14] = compound: Cc1cc(Nc2cc(N3CCN(C)CC3)nc(Sc3ccc(NC(=O)C4CC4)cc3)n2)n[nH]1 [Tozasertib] + CC(=O)Nc1cccc(-n2c(=O)n(C3CC3)c(=O)c3c(Nc4ccc(I)cc4F)n(C)c(=O)c(C)c32)c1 [Trametinib] (partner 0.02 µM)
Method in brief: as §1

[15] = compound: Cc1cc(Nc2cc(N3CCN(C)CC3)nc(Sc3ccc(NC(=O)C4CC4)cc3)n2)n[nH]1 [Tozasertib] + COc1cccc2cc(-c3nc([C@H]4CC[C@H](C(=O)O)CC4)n4ncnc(N)c34)[nH]c12 [OSI-027] (partner 0.5 µM)
Method in brief: as §1

[16] = compound: Cc1cc(Nc2cc(N3CCN(C)CC3)nc(Sc3ccc(NC(=O)C4CC4)cc3)n2)n[nH]1 [Tozasertib] + Nc1nc2[nH]cc(CCc3ccc(C(=O)N[C@@H](CCC(=O)O)C(=O)O)cc3)c2c(=O)[nH]1 [Pemetrexed] (partner 0.2 µM)
Method in brief: as §1

[17] = compound: Cc1cc(Nc2cc(N3CCN(C)CC3)nc(Sc3ccc(NC(=O)C4CC4)cc3)n2)n[nH]1 [Tozasertib] + N=C(N)NC(=N)NCCc1ccccc1 [Phenformin] (partner 250 µM)
Method in brief: as §1

[18] = compound: Cc1cc(Nc2cc(N3CCN(C)CC3)nc(Sc3ccc(NC(=O)C4CC4)cc3)n2)n[nH]1 [Tozasertib] + Cc1nc(Nc2ncc(C(=O)Nc3c(C)cccc3Cl)s2)cc(N2CCN(CCO)CC2)n1 [Dasatinib] (partner 0.075 µM)
Method in brief: as §1

[19] = compound: Cc1cc(Nc2cc(N3CCN(C)CC3)nc(Sc3ccc(NC(=O)C4CC4)cc3)n2)n[nH]1 [Tozasertib] + NC(=O)Nc1cc(-c2cccc(F)c2)sc1C(=O)N[C@H]1CCCNC1 [AZD7762] (partner 0.2 µM)
Method in brief: as §1

[20] = compound: Cc1cc(Nc2cc(N3CCN(C)CC3)nc(Sc3ccc(NC(=O)C4CC4)cc3)n2)n[nH]1 [Tozasertib] + Nc1ncn([C@H]2C[C@H](O)[C@@H](CO)O2)c(=O)n1 [Decitabine] (partner 2 µM)
Method in brief: as §1

IA-LM
relative viability ([1]; first compound 0.004 µM): 0.794
relative viability ([1]; first compound 0.1265 µM): 0.849
relative viability ([2]; first compound 0.004 µM): 0.715
relative viability ([2]; first compound 0.01265 µM): 0.753
relative viability ([2]; first compound 0.04 µM): 0.871
relative viability ([2]; first compound 0.1265 µM): 0.457
relative viability ([3]; first compound 0.004 µM): 0.784
relative viability ([3]; first compound 0.01265 µM): 1.05
relative viability ([3]; first compound 0.04 µM): 0.817
relative viability ([3]; first compound 0.1265 µM): 0.851
relative viability ([4]; first compound 0.004 µM): 1.38
relative viability ([4]; first compound 0.01265 µM): 1.18
relative viability ([4]; first compound 0.04 µM): 1.11
relative viability ([4]; first compound 0.1265 µM): 0.914
relative viability ([5]; first compound 0.004 µM): 0.967
relative viability ([5]; first compound 0.01265 µM): 0.838
relative viability ([5]; first compound 0.04 µM): 1.13
relative viability ([5]; first compound 0.1265 µM): 0.479
relative viability ([6]; first compound 0.004 µM): 0.976
relative viability ([6]; first compound 0.01265 µM): 0.909
relative viability ([6]; first compound 0.04 µM): 0.779
relative viability ([6]; first compound 0.1265 µM): 0.814
relative viability ([7]; first compound 0.04 µM): 0.855
relative viability ([7]; first compound 0.1265 µM): 0.854
relative viability ([8]; first compound 0.004 µM): 0.969
relative viability ([8]; first compound 0.01265 µM): 0.784
relative viability ([8]; first compound 0.04 µM): 0.767
relative viability ([8]; first compound 0.1265 µM): 0.797
relative viability ([9]; first compound 0.004 µM): 0.697
relative viability ([9]; first compound 0.01265 µM): 0.564
relative viability ([9]; first compound 0.04 µM): 0.533
relative viability ([9]; first compound 0.1265 µM): 0.307
relative viability ([10]; first compound 0.004 µM): 0.336
relative viability ([10]; first compound 0.01265 µM): 0.302
relative viability ([10]; first compound 0.04 µM): 0.457
relative viability ([10]; first compound 0.1265 µM): 0.265
relative viability ([11]; 0.004 µM): 1.06
relative viability ([11]; 0.01265 µM): 0.819
relative viability ([11]; 0.04 µM): 0.954
relative viability ([11]; 0.1265 µM): 0.795

NCI-H522
relative viability ([12]; first compound 0.004 µM): 1.03
relative viability ([12]; first compound 0.01265 µM): 1.02
relative viability ([12]; first compound 0.04 µM): 1.06
relative viability ([12]; first compound 0.1265 µM): 0.749
relative viability ([13]; first compound 0.004 µM): 1.36
relative viability ([13]; first compound 0.01265 µM): 1.48
relative viability ([13]; first compound 0.04 µM): 1
relative viability ([13]; first compound 0.1265 µM): 0.896
relative viability ([6]; first compound 0.004 µM): 0.619
relative viability ([6]; first compound 0.04 µM): 0.603
relative viability ([6]; first compound 0.1265 µM): 0.531
relative viability ([14]; first compound 0.004 µM): 0.825
relative viability ([14]; first compound 0.04 µM): 0.671
relative viability ([14]; first compound 0.1265 µM): 0.711
relative viability ([15]; first compound 0.004 µM): 0.773
relative viability ([15]; first compound 0.01265 µM): 0.838
relative viability ([15]; first compound 0.04 µM): 0.783
relative viability ([15]; first compound 0.1265 µM): 0.628
relative viability ([16]; first compound 0.004 µM): 0.931
relative viability ([16]; first compound 0.01265 µM): 1.16
relative viability ([16]; first compound 0.04 µM): 0.927
relative viability ([16]; first compound 0.1265 µM): 0.837
relative viability ([7]; first compound 0.004 µM): 0.917
relative viability ([7]; first compound 0.01265 µM): 1.14
relative viability ([7]; first compound 0.04 µM): 0.759
relative viability ([7]; first compound 0.1265 µM): 0.782
relative viability ([17]; first compound 0.004 µM): 0.687
relative viability ([17]; first compound 0.01265 µM): 0.62
relative viability ([17]; first compound 0.04 µM): 0.676
relative viability ([17]; first compound 0.1265 µM): 0.593
relative viability ([18]; first compound 0.004 µM): 0.836
relative viability ([18]; first compound 0.01265 µM): 1.12
relative viability ([18]; first compound 0.04 µM): 1.01
relative viability ([18]; first compound 0.1265 µM): 0.725
relative viability ([19]; first compound 0.01265 µM): 0.841
relative viability ([19]; first compound 0.04 µM): 0.772
relative viability ([19]; first compound 0.1265 µM): 0.47
relative viability ([20]; first compound 0.004 µM): 0.655
relative viability ([20]; first compound 0.01265 µM): 0.746
relative viability ([20]; first compound 0.04 µM): 0.647
relative viability ([20]; first compound 0.1265 µM): 0.622
relative viability ([11]; 0.004 µM): 1.12
relative viability ([11]; 0.01265 µM): 1
relative viability ([11]; 0.04 µM): 1.05
relative viability ([11]; 0.1 µM, anchor plate): 0.565
relative viability ([11]; 0.1265 µM): 0.671
